In brackets after ≈: the same amount, converted by molar mass.
Legend:
Type in all cases: cell-based
M. avium = experiment: In vitro MIC, agar dilution; details: Mycobacterium avium
H. pylori = experiment: In vitro MIC, agar dilution; details: Helicobacter pylori
C. difficile = experiment: In vitro MIC, agar dilution; details: Clostridioides difficile
B. fragilis = experiment: In vitro MIC, agar dilution; details: Bacteroides fragilis
C. perfringens = experiment: microbe, parasite or virus in culture; details: Clostridium perfringens
S. pneumoniae (CiproR) = experiment: In vitro MIC, agar dilution; details: Streptococcus pneumoniae; S. pneumoniae (CiproR), 3 isolates; read-out: MIC Range
Enterococcus spp. (VanR) = experiment: In vitro MIC, agar dilution; details: Enterococcus spp. (VanR), 21 isolates
C. freundii = experiment: In vitro MIC, agar dilution; details: Citrobacter freundii
Legionella spp. = experiment: microbe, parasite or virus in culture; details: Legionella
S. aureus (CiproR) = experiment: In vitro MIC, agar dilution; details: Staphylococcus aureus, S. aureus (CiproR), 25 isolates
S. epidermidis (CiproS) = experiment: In vitro MIC, agar dilution; details: Staphylococcus epidermidis
E. faecalis (VanS) = experiment: In vitro MIC, agar dilution; details: Enterococcus faecalis
S. pyogenes = experiment: In vitro MIC, agar dilution; details: Streptococcus pyogenes
Klebsiella spp. = experiment: In vitro MIC, agar dilution
Providencia spp. = experiment: In vitro MIC, agar dilution
E. faecium (CiproR) = experiment: In vitro MIC, agar dilution; details: Enterococcus faecium; E. faecium (CiproR), 2 isolates; read-out: MIC Range
N. gonorrhoeae = experiment: In vitro MIC, agar dilution; details: Neisseria gonorrhoeae
S. aureus (CiproS) = experiment: In vitro MIC, agar dilution; details: Staphylococcus aureus
Salmonella spp. = experiment: In vitro MIC, agar dilution; details: 23 isolates
Procedure, shortened: (§1)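 MIC, the lowest compound level without growth versus a drug-free BHI control plate, with faint haze or scattered colonies scored as no growth. About 10^4 CFU was replicator-spotted from 1:100 dilutions, or 1:10 for slow-growing strains, and plates were read after ~20–24 h at 35–37 °C.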

E. coli = experiment: In vitro MIC, agar dilution; details: Escherichia coli, 25 isolates
Procedure, shortened: as §1

P. mirabilis = experiment: In vitro MIC, agar dilution; details: Proteus mirabilis
E. faecium (VanS) = experiment: In vitro MIC, agar dilution; details: Enterococcus faecium
E. faecium (CiproS) = experiment: In vitro MIC, agar dilution; details: Enterococcus faecium, E. faecium (CiproS), 16 isolates
Enterobacter spp. = experiment: In vitro MIC, agar dilution; details: Enterobacter
M. pneumoniae = experiment: In vitro MIC, agar dilution; details: Mycoplasmoides pneumoniae; M. pneumoniae, 7 isolates; read-out: MIC Range
S. epidermidis (CiproR) = experiment: In vitro MIC, agar dilution; details: Staphylococcus epidermidis, S. epidermidis (CiproR), 11 isolates
S. pneumoniae (PenR) = experiment: In vitro MIC, agar dilution; details: Streptococcus pneumoniae
H. influenzae = experiment: In vitro MIC, agar dilution; details: Haemophilus influenzae, H. influenzae, 18 isolates
Shigella spp. = experiment: microbe, parasite or virus in culture; details: read-out: MIC Range

NC1CCN(c2c(F)cc3c(=O)c(C(=O)O)cn(C4CC4)c3c2Cl)C1 (stereo not drawn) [Clinafloxacin, clinafloxacin]
MIC90 (M. avium): 32 µg/mL (≈ 87.5 µM)
MIC50 (M. avium; M. avium, 20 isolates, read-out: MIC50): 16 µg/mL (≈ 43.7 µM)
MIC90 (H. pylori): 0.03 µg/mL (≈ 0.082 µM)
MIC50 (H. pylori; H. pylori, 17 isolates, read-out: MIC50): 0.015 µg/mL (≈ 0.041 µM)
MIC (H. pylori; H. pylori, 17 isolates, read-out: MIC Range): 0.008 to 0.03 µg/mL (≈ 0.0219 to 0.082 µM)
MIC90 (C. difficile): 0.25 µg/mL (≈ 0.683 µM)
MIC (C. difficile; read-out: MIC Range): 0.12 to 0.25 µg/mL (≈ 0.328 to 0.683 µM)
MIC50 (C. difficile; C. difficile, 10 isolates, read-out: MIC50): 0.25 µg/mL (≈ 0.683 µM)
MIC90 (B. fragilis): 0.5 µg/mL (≈ 1.37 µM)
MIC (B. fragilis; read-out: MIC Range): 0.06 to 0.5 µg/mL (≈ 0.164 to 1.37 µM)
MIC50 (B. fragilis; B. fragilis, 18 isolates, read-out: MIC50): 0.25 µg/mL (≈ 0.683 µM)
MIC50 (C. perfringens): 0.12 µg/mL (≈ 0.328 µM)
MIC90 (C. perfringens; C. perfringens, 13 isolates): 0.12 µg/mL (≈ 0.328 µM)
MIC (C. perfringens; read-out: MIC Range): 0.06 to 0.12 µg/mL (≈ 0.164 to 0.328 µM)
MIC (S. pneumoniae (CiproR)): 0.12 µg/mL (≈ 0.328 µM)
MIC50 (Enterococcus spp. (VanR); read-out: MIC50): 1 µg/mL (≈ 2.73 µM)
MIC90 (Enterococcus spp. (VanR); read-out: MIC90): 2 µg/mL (≈ 5.47 µM)
MIC (Enterococcus spp. (VanR); read-out: MIC Range): 0.12 to 8 µg/mL (≈ 0.328 to 21.9 µM)
MIC50 (C. freundii): 0.03 µg/mL (≈ 0.082 µM)
MIC90 (C. freundii): 0.12 µg/mL (≈ 0.328 µM)
MIC (C. freundii; read-out: MIC Range): 0.015 to 0.12 µg/mL (≈ 0.041 to 0.328 µM)
MIC50 (Legionella spp.): 0.06 µg/mL (≈ 0.164 µM)
MIC90 (Legionella spp.): 0.12 µg/mL (≈ 0.328 µM)
MIC (Legionella spp.; read-out: MIC Range): 0.03 to 0.12 µg/mL (≈ 0.082 to 0.328 µM)
MIC50 (S. aureus (CiproR); read-out: MIC50): 0.5 µg/mL (≈ 1.37 µM)
MIC90 (S. aureus (CiproR); read-out: MIC90): 1 µg/mL (≈ 2.73 µM)
MIC (S. aureus (CiproR); read-out: MIC Range): 0.25 to 2 µg/mL (≈ 0.683 to 5.47 µM)
MIC50 (S. epidermidis (CiproS)): 0.03 µg/mL (≈ 0.082 µM)
MIC90 (S. epidermidis (CiproS)): 0.03 µg/mL (≈ 0.082 µM)
MIC (S. epidermidis (CiproS); S. epidermidis (CiproS), 23 isolates, read-out: MIC Range): 0.015 to 0.06 µg/mL (≈ 0.041 to 0.164 µM)
MIC90 (E. faecalis (VanS)): 0.25 µg/mL (≈ 0.683 µM)
MIC (E. faecalis (VanS); read-out: MIC Range): 0.12 to 0.25 µg/mL (≈ 0.328 to 0.683 µM)
MIC50 (E. faecalis (VanS); E. faecalis (VanS), 17 isolates, read-out: MIC50): 0.25 µg/mL (≈ 0.683 µM)
MIC90 (S. pyogenes): 0.06 µg/mL (≈ 0.164 µM)
MIC (S. pyogenes; read-out: MIC Range): 0.06 to 0.12 µg/mL (≈ 0.164 to 0.328 µM)
MIC50 (S. pyogenes; S. pyogenes, 21 isolates, read-out: MIC50): 0.06 µg/mL (≈ 0.164 µM)
MIC50 (Klebsiella spp.; Klebsiella): 0.03 µg/mL (≈ 0.082 µM)
MIC90 (Klebsiella spp.; Klebsiella): 0.03 µg/mL (≈ 0.082 µM)
MIC (Klebsiella spp.; Klebsiella spp., 29 isolates, read-out: MIC Range): 0.004 to 0.12 µg/mL (≈ 0.0109 to 0.328 µM)
MIC90 (Providencia spp.; Providencia): 0.03 µg/mL (≈ 0.082 µM)
MIC50 (Providencia spp.; Providencia spp., 28 isolates, read-out: MIC50): 0.015 µg/mL (≈ 0.041 µM)
MIC (Providencia spp.; Providencia spp., 28 isolates, read-out: MIC Range): 0.008 to 0.12 µg/mL (≈ 0.0219 to 0.328 µM)
MIC (E. faecium (CiproR)): 2 to 8 µg/mL (≈ 5.47 to 21.9 µM)
MIC90 (N. gonorrhoeae): 0.015 µg/mL (≈ 0.041 µM)
MIC50 (N. gonorrhoeae; N. gonorrhoeae, 12 isolates, read-out: MIC50): 4 ng/mL (≈ 0.0109 µM)
MIC (N. gonorrhoeae; N. gonorrhoeae, 12 isolates, read-out: MIC Range): 4 to 15 ng/mL (≈ 0.0109 to 0.041 µM)
MIC50 (S. aureus (CiproS)): 0.03 µg/mL (≈ 0.082 µM)
MIC90 (S. aureus (CiproS)): 0.03 µg/mL (≈ 0.082 µM)
MIC (S. aureus (CiproS); S. aureus (CiproS), 21 isolates, read-out: MIC Range): 0.015 to 0.03 µg/mL (≈ 0.041 to 0.082 µM)
MIC (Salmonella spp.): 0.004 to 0.25 µg/mL (≈ 0.0109 to 0.683 µM)
MIC50 (Salmonella spp.; read-out: MIC50): 0.015 µg/mL (≈ 0.041 µM)
MIC90 (Salmonella spp.; read-out: MIC90): 0.03 µg/mL (≈ 0.082 µM)
MIC (E. coli): 0.008 to 0.03 µg/mL (≈ 0.0219 to 0.082 µM)
MIC50 (E. coli; read-out: MIC50): 0.015 µg/mL (≈ 0.041 µM)
MIC90 (E. coli; read-out: MIC90): 0.015 µg/mL (≈ 0.041 µM)
MIC50 (P. mirabilis): 0.03 µg/mL (≈ 0.082 µM)
MIC90 (P. mirabilis): 0.06 µg/mL (≈ 0.164 µM)
MIC (P. mirabilis; P. mirabilis, 20 isolates, read-out: MIC Range): 0.03 to 0.06 µg/mL (≈ 0.082 to 0.164 µM)
MIC (E. faecium (VanS); read-out: MIC Range): 0.12 to 1 µg/mL (≈ 0.328 to 2.73 µM)
MIC50 (E. faecium (VanS); E. faecium (VanS), 11 isolates, read-out: MIC50): 0.5 µg/mL (≈ 1.37 µM)
MIC90 (E. faecium (VanS); E. faecium (VanS), 11 isolates, read-out: MIC90): 1 µg/mL (≈ 2.73 µM)
MIC50 (E. faecium (CiproS); read-out: MIC50): 1 µg/mL (≈ 2.73 µM)
MIC90 (E. faecium (CiproS); read-out: MIC90): 2 µg/mL (≈ 5.47 µM)
MIC (E. faecium (CiproS); read-out: MIC Range): 0.5 to 8 µg/mL (≈ 1.37 to 21.9 µM)
MIC50 (Enterobacter spp.): 0.03 µg/mL (≈ 0.082 µM)
MIC90 (Enterobacter spp.): 0.03 µg/mL (≈ 0.082 µM)
MIC (Enterobacter spp.; read-out: MIC Range): 0.03 to 0.12 µg/mL (≈ 0.082 to 0.328 µM)
MIC (M. pneumoniae): 0.015 to 0.03 µg/mL (≈ 0.041 to 0.082 µM)
MIC50 (S. epidermidis (CiproR); read-out: MIC50): 0.5 µg/mL (≈ 1.37 µM)
MIC90 (S. epidermidis (CiproR); read-out: MIC90): 1 µg/mL (≈ 2.73 µM)
MIC (S. epidermidis (CiproR); read-out: MIC Range): 0.25 to 2 µg/mL (≈ 0.683 to 5.47 µM)
MIC90 (S. pneumoniae (PenR)): 0.25 µg/mL (≈ 0.683 µM)
MIC (S. pneumoniae (PenR); read-out: MIC Range): 0.06 to 0.25 µg/mL (≈ 0.164 to 0.683 µM)
MIC50 (S. pneumoniae (PenR); S. pneumoniae (PenR), 25 isolates, read-out: MIC50): 0.12 µg/mL (≈ 0.328 µM)
MIC50 (H. influenzae; read-out: MIC50): 8 ng/mL (≈ 0.0219 µM)
MIC90 (H. influenzae; read-out: MIC90): 8 ng/mL (≈ 0.0219 µM)
MIC (H. influenzae; read-out: MIC Range): 4 to 8 ng/mL (≈ 0.0109 to 0.0219 µM)
MIC (Shigella spp.): 0.008 to 0.015 µg/mL (≈ 0.0219 to 0.041 µM)

— US5977133A, “Pyridone antibiotic with improved safety profile” (priority 1998, dated 1999)
